Measured values reported in patent US10617682B2 (ROSEMAN UNIVERSITY OF HEALTH SCIENCES, priority 2017, dated 2020).

What was measured:
[1] = HPLC potency of freshly prepared solution against USP standard prochlorperazine maleate; format: physicochemical
Method: The mobile phase consisted of the ion-pairing solution, acetonitrile, and methanol (50:40:10). The ion pairing solution was previously prepared by dissolving 4.33 g of sodium-1-octanesulfonic acid and 4.0 mL glacial acetic acid in 1000 mL of water. The chromatographic separation was achieved using a 3.9 mm×15 cm L1 (C18) column with 5 μm particle size. The flow-rate was 1.5 mL per minute and detection wavelength was 254 nm. The HPLC analysis was carried out by injecting 20 μL of sample into the Waters Alliance HPLC with Waters photodiode array (PDA) detector. Data acquisition and analysis was performed using WATERS® EMPOWER 3 software. The HPLC method was validated according to International Council on Harmonization (ICH) guidelines for various parameters including: linearity, accuracy and precision, robustness, and ruggedness.

[2] = Forced degradation studies by HPLC; format: physicochemical; conditions: 0.1 mg/mL
Method: The specificity of the HPLC method to degradation products was also assessed by subjecting prochlorperazine to various forced degradation conditions such as hydrolysis, oxidation, photodegradation, thermal degradation and UV irradiation.
The HPLC method used in this study was able to resolve prochlorperazine sulfoxide distinctly from prochlorperazine edisylate and trifluoperazine. […] Furthermore, forced degradation studies were also performed to assess any other degradation pathways that may interfere with prochlorperazine assay.

[3] = oral route; cited from earlier work

Row | potency compared with USP standard prochlorperazine maleate [1] [%] | degradation under oxidation ([2]; 0.1 M hydrogen peroxide overnight) | degradation under UV irradiation ([2]; ultraviolet radiation overnight) | Compound | degradation under acid hydrolysis ([2]; 0.1 M hydrochloric acid 1 hour) | degradation under base hydrolysis ([2]; 0.1 M sodium hydroxide 1 hour) | degradation under thermal degradation ([2]; 60° C. overnight) | degradation under photodegradation ([2]; laboratory light overnight) | absorption [3]
1 | 99.7±2.3 |  |  | CN1CCN(CCCN2c3ccccc3Sc3ccc(Cl)cc32)CC1 [prochlorperazine edisylate] |  |  |  |  | 
2 |  | showed degradation | showed degradation | CN1CCN(CCCN2c3ccccc3Sc3ccc(Cl)cc32)CC1 [prochlorperazine, 2-chloro-10-[3-(4-methylpiperazin-1-yl)propyl]phenothiazine] | did not show prochlorperazine degradation | did not show prochlorperazine degradation | did not show prochlorperazine degradation | did not show prochlorperazine degradation | low and variable absorption
